Assay results published in patent US7910647B2, “Adhesion inhibition of microorganisms by non-ionic surfactants” (Henkel AG & Co. KGaA, priority 2003, dated 2011).

System: Aspergillus niger
Experiment: Adhesion test with molds on silicone sealant DC3390 film
Conditions: 1 wt. % surfactant in silicone sealant DC3390; adhered Aspergillus niger spores (CFU) after 48 hours at 25° C.; sealant with no active substance = 100
Procedure: The silicone sealant DC3390 was used. 1 wt. % of surfactant was added and homogenized in the Speedmixer. The surfactants indicated in Table 1 were tested in comparison with the joint sealing compound without the addition of the surfactants being tested. The resulting composition was spread as the film (22×22×2 mm) and left to harden in air. The resulting test specimen was disinfected with 70% ethanol for 10 minutes, then washed with distilled water and dried. The test specimens were subsequently coated with a germ suspension of Aspergillus niger and incubated for one hour. The germ suspension was then siphoned off and the specimen was washed twice. The specimens were transferred into sterile tubes that contained 5 ml of inactivation solution and shaken on a shaker for 10 minutes at 400 rpm. To determine the number of adhered spores, firstly the specimens were placed in sterile 6-well plates and covered with wort agar with INT, secondly a determination of the colony count of the inactivation solution was carried out by the inoculation plate method. After 48 hours incubation at 25° C., the number of colony forming units (CFU) was subsequently determined.

For `CCO[Si](CCC(F)(F)C(F)(F)C(F)(F)C(F)(F)C(F)(F)C(F)(F)F)(OCC)OCC` [DYNASYLAN F8261, perfluorinated octyltriethoxysilane], the “Mold adhesion [%]” value was 80%.
